The results in this text go back to article PMC12645998, “Optimization of VE607 to generate analogs with improved neutralization activities against SARS-CoV-2 variants” (Journal of Virology, 2025).

For data set [1], the system named is pseudoviral particles carrying SARS-CoV-1 S. Nature of the data set: microbe, parasite or virus in culture. It is filed as cell-based. The conditions noted are these: Severe acute respiratory syndrome coronavirus, 293T/ACE2, read-out: IC50 SARS-CoV-1.
Data set [2] relates to pseudoviral particles carrying VSV-G. Nature of the data set: microbe, parasite or virus in culture. As to conditions: Vesicular stomatitis virus, 293T/ACE2, read-out: IC50 VSV-G. It is filed as cell-based.
In data set [3] the test system is pseudoviral particles bearing the Spike glycoprotein from SARS-CoV-2. The data set is described as follows: microbe, parasite or virus in culture. It is filed as cell-based. As to conditions: pseudovirus, 293T-ACE2 cells, compounds up to 100 µM.
Data set [4] can be described thus: Solubility in phosphate-buffered saline.
Where [5] appears, read: Severe acute respiratory syndrome coronavirus 2, 293T/ACE2, read-out: IC50 SARS-CoV-2, Table 1.

Molecules are shown by their SMILES. pIC50: −log10 of the molar value. Read-outs that look alike come from different tables or passages of the source.

As for `CN(C)C[C@@H](O)COc1cccc(OC[C@H](O)CN(C)C)c1` [Compound 15], the pIC50 is 5.60 in data set [1], 4.15 in data set [2] and 5.79 in data set [3] (setting [5]).
For `O[C@@H](COc1cccc(OC[C@H](O)CN2CCOCC2)c1)CN1CCOCC1` [Compound 16], in that order: below 4.00, below 4.00 and below 4.00.
With `CN1CCN(C[C@@H](O)COc2cccc(OC[C@H](O)CN3CCN(C)CC3)c2)CC1` [Compound 17], the pIC50 was 4.70 in data set [1], 4.13 in data set [2] and 5.75 in data set [3] (setting [5]).
Take `Cc1cccc(N2CCN(C[C@@H](O)COc3cccc(OC[C@H](O)CN4CCN(c5cccc(C)c5)CC4)c3)CC2)c1` [Compound 18]: the “Solubility in phosphate-buffered saline (PBS)” value (shortened to “Solubility”) in data set [4] is on record as “b Insoluble in phosphate-buffered saline (PBS)”.
As for `O[C@@H](COc1cccc(OC[C@H](O)CN2CCC(O)(c3ccc(Cl)cc3)CC2)c1)CN1CCC(O)(c2ccc(Cl)cc2)CC1` [Compound 19], the pIC50 in data set [1] was 5.72; in data set [2], 5.87; in data set [3] (setting [5]), 6.28.
For `CCN(C)C[C@@H](O)COc1cccc(OC[C@H](O)CN(C)CC)c1` [Compound 20], in that order: 6.24, below 4.00 and 5.93.
In the case of `C=CCNC[C@@H](O)COc1cccc(OC[C@H](O)CNCC=C)c1` [Compound 21], the figures for the pIC50 in data set [1], in data set [2] and in data set [3] (setting [5]) were 4.39, below 4.00 and 4.32, respectively.
For `COc1ccc(CNC[C@@H](O)COc2cccc(OC[C@H](O)CNCc3ccc(OC)cc3)c2)cc1` [Compound 22], in that order: 5.73, 5.55 and 6.24.
On to `O[C@H](CNCc1ccccc1OC(F)(F)F)COc1cccc(OC[C@H](O)CNCc2ccccc2OC(F)(F)F)c1` [Compound 23], for which, in data set [4], the “Solubility” value is “b Insoluble in phosphate-buffered saline (PBS)”.
Consider `O[C@H](CNC1CCOCC1)COc1cccc(OC[C@H](O)CNC2CCOCC2)c1` [Compound 24], for which the results for the pIC50 in data set [1], in data set [2] and in data set [3] (setting [5]) were below 4.00, 5.86 and 6.42, respectively.
For `CNC[C@@H](O)COc1cccc(OC[C@H](O)CNC)c1` [Compound 25], in that order: 6.35, 5.57 and below 4.00.
With `O[C@@H](COc1cc(Br)cc(OC[C@H](O)CN2CCCCC2)c1)CN1CCCCC1` [Compound 26], the pIC50 was 6.42 in data set [1]; 5.62 in data set [2]; 6.36 in data set [3] (setting [5]); 6.35 in data set [3] (read-out: IC50 SARS-CoV-2, Table 1).
As for `CCN(CC)C[C@@H](O)COc1cc(Br)cc(OC[C@H](O)CN(CC)CC)c1` [Compound 28], the results for the pIC50 in data set [1], in data set [2] and in data set [3] (setting [5]) were 4.76, below 4.00 and 5.75, respectively.
For `O[C@@H](COc1cc(Br)cc(OC[C@H](O)CN2CCOCC2)c1)CN1CCOCC1` [Compound 29], in that order: 4.52, below 4.00 and 5.58.
As for `Cc1cccc(N2CCN(C[C@@H](O)COc3cc(Br)cc(OC[C@H](O)CN4CCN(c5cccc(C)c5)CC4)c3)CC2)c1` [Compound 31], the “Solubility” value in data set [4] is listed as “b Insoluble in phosphate-buffered saline (PBS)”.
Turning to `O[C@@H](COc1cc(Br)cc(OC[C@H](O)CN2CCC(O)(c3ccc(Cl)cc3)CC2)c1)CN1CCC(O)(c2ccc(Cl)cc2)CC1` [Compound 32], the “Solubility” value in data set [4] is recorded as “b Insoluble in phosphate-buffered saline (PBS)”.
With `O[C@H](CNCc1ccccc1)COc1cc(Br)cc(OC[C@H](O)CNCc2ccccc2)c1` [Compound 34], the pIC50 in data set [1] is 6.47; in data set [2] it was 5.33; in data set [3] (setting [5]) it was 6.31.
For `C=CCNC[C@@H](O)COc1cc(Br)cc(OC[C@H](O)CNCC=C)c1` [Compound 35], in that order: 6.21, 4.58 and 6.15.
For `CC(C)CNC[C@@H](O)COc1cc(Br)cc(OC[C@H](O)CNCC(C)C)c1` [Compound 36], in that order: 6.66, 5.30 and 6.49.
As for `O[C@H](CNCc1ccncc1)COc1cc(Br)cc(OC[C@H](O)CNCc2ccncc2)c1` [Compound 37], the pIC50 is 5.89 in data set [1], 5.41 in data set [2] and 5.86 in data set [3] (setting [5]).
For `COc1ccc(CNC[C@@H](O)COc2cc(Br)cc(OC[C@H](O)CNCc3ccc(OC)cc3)c2)cc1` [Compound 38], the pIC50 in data set [1] was 6.18; in data set [2], 5.39; in data set [3] (setting [5]), 5.99.
Take `O[C@H](CNC1CCOCC1)COc1cc(Br)cc(OC[C@H](O)CNC2CCOCC2)c1` [Compound 40]: the pIC50 was 6.22 in data set [1], below 4.00 in data set [2] and 5.44 in data set [3] (setting [5]).
For `CNC[C@@H](O)COc1cc(Br)cc(OC[C@H](O)CNC)c1` [Compound 41], in that order: 6.51, below 4.00 and 5.93.
On to `O[C@@H](COc1ccccc1)CN1CCCCC1` [Compound 42], for which the pIC50 in data set [1] is 6.04; in data set [2], below 4.00; in data set [3] (setting [5]) it was 5.87.
For `CNC[C@@H](O)COc1ccccc1` [Compound 43], in that order: 4.20, below 4.00 and below 4.00.
For `CC(C)CNC[C@@H](O)COc1ccccc1` [Compound 44], in that order: 5.23, below 4.00 and below 4.00.
For `CN(C)C[C@@H](O)COc1ccccc1` [Compound 45], in that order: 4.86, below 4.00 and below 4.00.
Take `CCN(C)C[C@@H](O)COc1ccccc1` [Compound 46]: the pIC50 in data set [1], in data set [2] and in data set [3] (setting [5]) was below 4.00 throughout.
With `CCN(CC)C[C@@H](O)COc1ccccc1` [Compound 47], the pIC50 in data set [1], in data set [2] and in data set [3] (setting [5]) was below 4.00 each time.
`CN1CCN(C[C@@H](O)COc2ccccc2)CC1` [Compound 48]: the negative-log IC50 (pIC50) in data set [1], in data set [2] and in data set [3] (setting [5]) was below 4.00 each time.
On to `CNC[C@@H](O)COc1cccc(Br)c1` [Compound 49], for which the pIC50 in data set [1], in data set [2] and in data set [3] (setting [5]) was below 4.00 throughout.
`CC(C)CNC[C@@H](O)COc1cccc(Br)c1` [Compound 50]: the negative-log IC50 (pIC50) in data set [1], in data set [2] and in data set [3] (setting [5]) was below 4.00 each time.
For the compound `CN(C)C[C@@H](O)COc1cccc(Br)c1` [Compound 51], the values for the pIC50 in data set [1], in data set [2] and in data set [3] (setting [5]) were 4.76, below 4.00 and below 4.00, respectively.
Regarding `CCN(C)C[C@@H](O)COc1cccc(Br)c1` [Compound 52], the pIC50 in data set [1] was 4.29; in data set [2] it was below 4.00; in data set [3] (setting [5]), below 4.00.
In the case of `CN1CCN(C[C@@H](O)COc2cccc(Br)c2)CC1` [Compound 53], the pIC50 in data set [1], in data set [2] and in data set [3] (setting [5]) was below 4.00 each time.
`CNC[C@@H](O)COc1cccc(F)c1` [Compound 54]: the pIC50 in data set [1] was 4.26; in data set [2], below 4.00; in data set [3] (setting [5]) it was below 4.00.
Consider `CC(C)CNC[C@@H](O)COc1cccc(F)c1` [Compound 55], for which the pIC50 in data set [1], in data set [2] and in data set [3] (setting [5]) was below 4.00 each time.
With `CN(C)C[C@@H](O)COc1cccc(F)c1` [Compound 56], the values for the pIC50 in data set [1], in data set [2] and in data set [3] (setting [5]) were 4.71, below 4.00 and below 4.00, respectively.
As to `CCN(C)C[C@@H](O)COc1cccc(F)c1` [Compound 57], the pIC50 in data set [1] was 5.21; in data set [2] it was below 4.00; in data set [3] (setting [5]), below 4.00.
As for `CCN(CC)C[C@@H](O)COc1cccc(F)c1` [Compound 58], the pIC50 in data set [1], in data set [2] and in data set [3] (setting [5]) was below 4.00 throughout.
`CN1CCN(C[C@@H](O)COc2cccc(F)c2)CC1` [Compound 59]: the pIC50 in data set [1], in data set [2] and in data set [3] (setting [5]) was below 4.00 in each case.
On to `CNC[C@@H](O)COc1cccc(C(C)(C)C)c1` [Compound 60], for which the pIC50 in data set [1] is 4.34; in data set [2], below 4.00; in data set [3] (setting [5]) it was below 4.00.
In the case of `CC(C)CNC[C@@H](O)COc1cccc(C(C)(C)C)c1` [Compound 61], the pIC50 was 4.13 in data set [1], below 4.00 in data set [2] and below 4.00 in data set [3] (setting [5]).
On to `CN(C)C[C@@H](O)COc1cccc(C(C)(C)C)c1` [Compound 62], for which the pIC50 is 6.03 in data set [1], below 4.00 in data set [2] and 4.07 in data set [3] (setting [5]).
For `CCN(C)C[C@@H](O)COc1cccc(C(C)(C)C)c1` [Compound 63], the pIC50 is 5.33 in data set [1], below 4.00 in data set [2] and below 4.00 in data set [3] (setting [5]).
For the compound `CCN(CC)C[C@@H](O)COc1cccc(C(C)(C)C)c1` [Compound 64], the pIC50 was 4.24 in data set [1], below 4.00 in data set [2] and below 4.00 in data set [3] (setting [5]).
In the case of `CN1CCN(C[C@@H](O)COc2cccc(C(C)(C)C)c2)CC1` [Compound 65], the negative-log IC50 (pIC50) in data set [1] is 4.66; in data set [2] it was below 4.00; in data set [3] (setting [5]), 4.34.
For `OC(COc1cccc(OCC(O)CN2CCCCC2)c1)CN1CCCCC1` (centres unmarked) [VE607], in that order: 6.13, below 4.00 and 5.58.
